Measurements taken from the supplement of paper PMC12463676, “Small-molecule dissolution of stress granules by redox modulation benefits ALS models” (Nature Chemical Biology, 2025).

Assays:
lipoamide = compound: NC(=O)CCCCC1CCSS1 [lipoamide]; assay: thermal stability z-score vs DMSO; higher = more thermally stabilized by treatment; conditions: HeLa, lipoamide concentration 100 µM
Experimental: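 Cellular thermal proteome profiling in HeLa cells. Cells were treated with 100 µM lipoamide for 1 h, with or without 1 mM arsenate for a further 1 h, then heated to ten temperatures (37-66.3 °C), and soluble protein was quantified by TMT mass spectrometry relative to 0.1% DMSO controls. The thermal stability score (sum of log2 fold changes minus the abundance score) was transformed to a z-score; mean of n = 3 experiments.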

potassium arsenate = compound: O=[As]([O-])(O)O.[K+] [potassium arsenate]; assay: as above; conditions: HeLa; arsenate concentration 1 mM
Experimental: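 Cellular thermal proteome profiling in HeLa cells treated with 1 mM arsenate for 1 h (DMSO pretreatment), heated to ten temperatures (37-66.3 °C). Soluble protein was quantified by TMT mass spectrometry relative to DMSO controls; the thermal stability score was transformed to a z-score; mean of n = 3 experiments.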

[1] = arsenate co-treatment: 1 mM arsenate 1 h
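Note: each temperature applied for 3 min, abundance score taken as mean log2 fold change at the two lowest temperatures, z-score obtained by mean subtraction and division by SD.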

TMX2 (UniProt Q9Y320)
thermal stability z-score (lipoamide; [1]): -1.05 | thermal stability z-score (lipoamide; arsenate co-treatment: none): -2.85 | thermal stability z-score (potassium arsenate): -1.96

PPCS (UniProt Q9HAB8)
thermal stability z-score (lipoamide; [1]): -0.183 | thermal stability z-score (lipoamide; arsenate co-treatment: none): 0.122 | thermal stability z-score (potassium arsenate): -0.328

ZFAND6 (UniProt Q6FIF0)
thermal stability z-score (lipoamide; [1]): 0.56 | thermal stability z-score (lipoamide; arsenate co-treatment: none): 0.219 | thermal stability z-score (potassium arsenate): -0.0508

GAK (UniProt O14976)
thermal stability z-score (lipoamide; [1]): 0.338 | thermal stability z-score (lipoamide; arsenate co-treatment: none): -0.0197 | thermal stability z-score (potassium arsenate): 0.475

SDSL (UniProt Q96GA7)
thermal stability z-score (lipoamide; [1]): 0.0811 | thermal stability z-score (lipoamide; arsenate co-treatment: none): 1.46 | thermal stability z-score (potassium arsenate): -0.745

YTHDC2 (UniProt Q9H6S0)
Sequence of UniProt Q9H6S0 (Q9H6S0 whole entry): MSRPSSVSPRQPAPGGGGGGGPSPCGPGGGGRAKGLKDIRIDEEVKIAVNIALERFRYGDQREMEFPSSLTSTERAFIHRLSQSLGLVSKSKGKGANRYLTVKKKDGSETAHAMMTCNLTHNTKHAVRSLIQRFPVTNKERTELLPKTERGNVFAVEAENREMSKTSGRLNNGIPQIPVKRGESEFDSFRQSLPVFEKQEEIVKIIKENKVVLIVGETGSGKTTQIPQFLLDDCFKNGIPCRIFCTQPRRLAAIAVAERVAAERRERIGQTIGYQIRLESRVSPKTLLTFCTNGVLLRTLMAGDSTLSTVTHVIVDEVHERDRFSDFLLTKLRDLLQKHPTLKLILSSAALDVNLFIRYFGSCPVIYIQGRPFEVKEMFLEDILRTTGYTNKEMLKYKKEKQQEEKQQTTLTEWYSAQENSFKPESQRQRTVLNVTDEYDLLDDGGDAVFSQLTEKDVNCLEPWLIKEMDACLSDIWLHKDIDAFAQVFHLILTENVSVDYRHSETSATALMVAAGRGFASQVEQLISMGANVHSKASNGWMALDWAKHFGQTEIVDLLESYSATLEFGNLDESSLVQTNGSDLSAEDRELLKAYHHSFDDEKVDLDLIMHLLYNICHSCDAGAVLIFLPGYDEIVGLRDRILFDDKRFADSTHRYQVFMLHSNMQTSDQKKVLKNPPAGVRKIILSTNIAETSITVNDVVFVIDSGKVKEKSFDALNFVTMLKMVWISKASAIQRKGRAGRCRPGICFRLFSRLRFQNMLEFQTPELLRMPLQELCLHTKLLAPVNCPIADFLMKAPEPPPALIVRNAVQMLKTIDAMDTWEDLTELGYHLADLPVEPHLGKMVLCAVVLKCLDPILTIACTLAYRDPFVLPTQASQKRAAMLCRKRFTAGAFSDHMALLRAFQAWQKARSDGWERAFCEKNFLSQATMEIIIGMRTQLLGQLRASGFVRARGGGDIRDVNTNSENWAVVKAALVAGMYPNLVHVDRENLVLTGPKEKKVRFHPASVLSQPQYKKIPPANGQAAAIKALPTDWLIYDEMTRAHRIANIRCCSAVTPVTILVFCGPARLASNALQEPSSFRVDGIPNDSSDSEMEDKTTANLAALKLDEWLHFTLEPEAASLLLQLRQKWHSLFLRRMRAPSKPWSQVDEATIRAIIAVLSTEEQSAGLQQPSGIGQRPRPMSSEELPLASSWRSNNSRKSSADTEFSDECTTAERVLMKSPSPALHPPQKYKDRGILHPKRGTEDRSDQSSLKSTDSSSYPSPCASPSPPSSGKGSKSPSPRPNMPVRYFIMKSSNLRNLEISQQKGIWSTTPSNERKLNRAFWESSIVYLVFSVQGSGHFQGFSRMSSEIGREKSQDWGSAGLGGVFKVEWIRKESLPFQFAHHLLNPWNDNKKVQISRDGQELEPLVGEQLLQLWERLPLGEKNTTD
thermal stability z-score (lipoamide; [1]): -0.0971 | thermal stability z-score (lipoamide; arsenate co-treatment: none): -0.734 | thermal stability z-score (potassium arsenate): -0.0852

CD151 (UniProt P48509)
thermal stability z-score (lipoamide; [1]): 1.24 | thermal stability z-score (lipoamide; arsenate co-treatment: none): 0.682 | thermal stability z-score (potassium arsenate): 0.131

IFRD1 (UniProt O00458)
Sequence of UniProt O00458 (O00458 whole entry): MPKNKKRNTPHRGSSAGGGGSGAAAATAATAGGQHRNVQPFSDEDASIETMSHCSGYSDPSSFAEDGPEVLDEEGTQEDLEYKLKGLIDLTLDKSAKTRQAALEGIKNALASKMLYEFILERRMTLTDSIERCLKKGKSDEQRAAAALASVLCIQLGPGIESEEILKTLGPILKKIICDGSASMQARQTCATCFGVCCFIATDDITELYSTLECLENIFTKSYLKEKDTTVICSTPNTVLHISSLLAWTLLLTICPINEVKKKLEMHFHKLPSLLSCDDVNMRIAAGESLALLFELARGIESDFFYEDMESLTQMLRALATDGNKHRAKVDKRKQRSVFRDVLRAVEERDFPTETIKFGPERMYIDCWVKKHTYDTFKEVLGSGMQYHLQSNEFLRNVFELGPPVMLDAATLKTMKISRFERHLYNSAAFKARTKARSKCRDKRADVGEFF
thermal stability z-score (lipoamide; [1]): -0.177 | thermal stability z-score (lipoamide; arsenate co-treatment: none): -0.444 | thermal stability z-score (potassium arsenate): 1.9

CLTA (UniProt P09496)
thermal stability z-score (lipoamide; [1]): 1.35 | thermal stability z-score (lipoamide; arsenate co-treatment: none): 1.54 | thermal stability z-score (potassium arsenate): 0.655

CCDC117 (UniProt Q8IWD4)
thermal stability z-score (lipoamide; [1]): -0.191 | thermal stability z-score (lipoamide; arsenate co-treatment: none): -0.317 | thermal stability z-score (potassium arsenate): -0.388

DDB1 (UniProt Q16531)
thermal stability z-score (lipoamide; [1]): -0.479 | thermal stability z-score (lipoamide; arsenate co-treatment: none): -0.519 | thermal stability z-score (potassium arsenate): -0.468

NMI (UniProt Q13287)
thermal stability z-score (lipoamide; [1]): 1.24 | thermal stability z-score (lipoamide; arsenate co-treatment: none): 0.324 | thermal stability z-score (potassium arsenate): 2.1

SCO2 (UniProt O43819)
thermal stability z-score (lipoamide; [1]): -0.169 | thermal stability z-score (lipoamide; arsenate co-treatment: none): 0.0623 | thermal stability z-score (potassium arsenate): 0.538

DDX21 (UniProt Q9NR30)
thermal stability z-score (lipoamide; [1]): 0.693 | thermal stability z-score (lipoamide; arsenate co-treatment: none): 0.249 | thermal stability z-score (potassium arsenate): -1.35

MTMR9 (UniProt Q96QG7)
Sequence of UniProt Q96QG7 (Q96QG7 whole entry): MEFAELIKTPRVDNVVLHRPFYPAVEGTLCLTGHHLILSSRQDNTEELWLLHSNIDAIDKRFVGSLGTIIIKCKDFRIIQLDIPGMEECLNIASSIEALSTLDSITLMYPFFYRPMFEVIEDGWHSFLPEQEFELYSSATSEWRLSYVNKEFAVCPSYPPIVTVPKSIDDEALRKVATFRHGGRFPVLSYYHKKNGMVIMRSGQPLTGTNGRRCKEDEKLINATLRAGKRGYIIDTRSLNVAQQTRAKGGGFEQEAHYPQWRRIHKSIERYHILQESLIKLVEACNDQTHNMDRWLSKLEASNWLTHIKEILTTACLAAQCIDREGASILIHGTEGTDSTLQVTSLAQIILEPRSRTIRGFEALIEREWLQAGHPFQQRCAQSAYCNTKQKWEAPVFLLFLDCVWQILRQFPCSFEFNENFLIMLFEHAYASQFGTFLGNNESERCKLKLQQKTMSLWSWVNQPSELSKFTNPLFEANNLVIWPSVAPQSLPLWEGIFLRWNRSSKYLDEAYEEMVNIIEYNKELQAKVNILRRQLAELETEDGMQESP
thermal stability z-score (lipoamide; [1]): -0.0303 | thermal stability z-score (lipoamide; arsenate co-treatment: none): 1.35 | thermal stability z-score (potassium arsenate): -0.12

SMARCD2 (UniProt Q92925)
thermal stability z-score (lipoamide; [1]): 0.132 | thermal stability z-score (lipoamide; arsenate co-treatment: none): 0.101 | thermal stability z-score (potassium arsenate): -0.0687

GNB1L (UniProt Q9BYB4)
thermal stability z-score (lipoamide; [1]): 0.757 | thermal stability z-score (lipoamide; arsenate co-treatment: none): -0.25 | thermal stability z-score (potassium arsenate): -0.589

MALSU1 (UniProt Q96EH3)
thermal stability z-score (lipoamide; [1]): -1.47 | thermal stability z-score (lipoamide; arsenate co-treatment: none): -1.5 | thermal stability z-score (potassium arsenate): -1.01

RBM27 (UniProt Q9P2N5)
thermal stability z-score (lipoamide; [1]): -0.453 | thermal stability z-score (lipoamide; arsenate co-treatment: none): -0.373 | thermal stability z-score (potassium arsenate): -0.145

REL (UniProt Q04864)
thermal stability z-score (lipoamide; [1]): -0.801 | thermal stability z-score (lipoamide; arsenate co-treatment: none): 0.147 | thermal stability z-score (potassium arsenate): 0.22

ROCK2 (UniProt O75116)
thermal stability z-score (lipoamide; [1]): 0.504 | thermal stability z-score (lipoamide; arsenate co-treatment: none): 0.462 | thermal stability z-score (potassium arsenate): 0.245

PRKRIP1 (UniProt Q9H875)
thermal stability z-score (lipoamide; [1]): 0.524 | thermal stability z-score (lipoamide; arsenate co-treatment: none): 0.599 | thermal stability z-score (potassium arsenate): 0.247

CHTF8 (UniProt P0CG13)
thermal stability z-score (lipoamide; [1]): 1.3 | thermal stability z-score (lipoamide; arsenate co-treatment: none): 0.577 | thermal stability z-score (potassium arsenate): 0.975

RBM3 (UniProt P98179)
Sequence of UniProt P98179 (P98179 whole entry): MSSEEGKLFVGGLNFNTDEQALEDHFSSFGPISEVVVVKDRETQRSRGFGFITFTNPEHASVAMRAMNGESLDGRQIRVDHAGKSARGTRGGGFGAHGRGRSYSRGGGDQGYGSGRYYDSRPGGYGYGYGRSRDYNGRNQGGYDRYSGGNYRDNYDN
thermal stability z-score (lipoamide; [1]): 0.0805 | thermal stability z-score (lipoamide; arsenate co-treatment: none): -0.138 | thermal stability z-score (potassium arsenate): 0.167

RALB (UniProt P11234)
thermal stability z-score (lipoamide; [1]): 0.25 | thermal stability z-score (lipoamide; arsenate co-treatment: none): -0.129 | thermal stability z-score (potassium arsenate): 0.0205

NCOA2 (UniProt Q15596)
thermal stability z-score (lipoamide; [1]): -0.239 | thermal stability z-score (lipoamide; arsenate co-treatment: none): -0.0592 | thermal stability z-score (potassium arsenate): -0.284

CGGBP1 (UniProt Q9UFW8)
thermal stability z-score (lipoamide; [1]): -0.266 | thermal stability z-score (lipoamide; arsenate co-treatment: none): -0.574 | thermal stability z-score (potassium arsenate): -0.0749

SIPA1L2 (UniProt Q9P2F8)
Sequence of UniProt Q9P2F8 (Q9P2F8 whole entry): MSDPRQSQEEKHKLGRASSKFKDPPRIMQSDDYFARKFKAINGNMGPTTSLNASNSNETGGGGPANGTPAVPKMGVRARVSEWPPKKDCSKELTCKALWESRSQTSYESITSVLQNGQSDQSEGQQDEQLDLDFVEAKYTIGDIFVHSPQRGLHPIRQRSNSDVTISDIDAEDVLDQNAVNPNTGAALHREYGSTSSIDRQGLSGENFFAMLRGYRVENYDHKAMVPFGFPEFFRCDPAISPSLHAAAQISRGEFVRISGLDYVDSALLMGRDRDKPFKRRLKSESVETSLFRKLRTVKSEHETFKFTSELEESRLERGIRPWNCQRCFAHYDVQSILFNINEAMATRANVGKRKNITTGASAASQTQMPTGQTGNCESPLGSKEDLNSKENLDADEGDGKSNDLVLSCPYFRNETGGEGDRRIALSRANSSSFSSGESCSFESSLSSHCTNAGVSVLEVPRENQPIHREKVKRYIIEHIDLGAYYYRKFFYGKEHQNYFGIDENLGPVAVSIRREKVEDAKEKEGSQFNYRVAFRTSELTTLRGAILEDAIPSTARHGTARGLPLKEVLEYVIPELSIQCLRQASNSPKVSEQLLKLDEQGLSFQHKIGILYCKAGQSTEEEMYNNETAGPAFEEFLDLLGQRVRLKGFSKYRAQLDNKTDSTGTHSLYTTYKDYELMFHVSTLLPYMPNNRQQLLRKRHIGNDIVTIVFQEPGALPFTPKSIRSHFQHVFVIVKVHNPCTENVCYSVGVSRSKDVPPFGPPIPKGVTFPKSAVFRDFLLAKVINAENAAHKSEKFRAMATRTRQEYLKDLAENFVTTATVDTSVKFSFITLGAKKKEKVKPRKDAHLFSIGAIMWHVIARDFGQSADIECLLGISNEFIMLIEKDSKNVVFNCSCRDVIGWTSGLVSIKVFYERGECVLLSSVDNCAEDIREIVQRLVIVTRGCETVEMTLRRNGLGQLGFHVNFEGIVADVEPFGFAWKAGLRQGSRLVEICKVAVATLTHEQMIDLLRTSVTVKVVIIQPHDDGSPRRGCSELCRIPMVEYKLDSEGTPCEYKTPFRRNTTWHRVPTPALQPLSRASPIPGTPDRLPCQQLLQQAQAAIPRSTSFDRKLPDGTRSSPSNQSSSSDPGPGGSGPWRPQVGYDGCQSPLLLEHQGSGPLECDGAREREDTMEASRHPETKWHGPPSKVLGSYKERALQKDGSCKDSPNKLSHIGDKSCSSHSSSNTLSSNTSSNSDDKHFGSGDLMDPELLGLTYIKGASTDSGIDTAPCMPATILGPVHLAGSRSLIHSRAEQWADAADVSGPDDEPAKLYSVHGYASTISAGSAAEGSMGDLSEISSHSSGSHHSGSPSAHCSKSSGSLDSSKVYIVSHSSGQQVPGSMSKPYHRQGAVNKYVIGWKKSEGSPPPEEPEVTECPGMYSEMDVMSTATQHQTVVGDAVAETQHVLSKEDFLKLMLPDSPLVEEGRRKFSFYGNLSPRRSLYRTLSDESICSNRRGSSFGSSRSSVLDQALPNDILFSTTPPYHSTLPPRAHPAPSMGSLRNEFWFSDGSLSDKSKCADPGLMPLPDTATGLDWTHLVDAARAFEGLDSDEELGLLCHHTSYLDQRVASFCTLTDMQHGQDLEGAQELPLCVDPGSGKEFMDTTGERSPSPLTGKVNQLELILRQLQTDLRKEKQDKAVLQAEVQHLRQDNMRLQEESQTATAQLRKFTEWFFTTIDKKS
thermal stability z-score (lipoamide; [1]): 0.197 | thermal stability z-score (lipoamide; arsenate co-treatment: none): 0.0316 | thermal stability z-score (potassium arsenate): -0.149

TAOK2 (UniProt Q9UL54)
thermal stability z-score (lipoamide; [1]): -0.161 | thermal stability z-score (lipoamide; arsenate co-treatment: none): -0.0781 | thermal stability z-score (potassium arsenate): -0.0359

TOP2A (UniProt P11388)
thermal stability z-score (lipoamide; [1]): -0.141 | thermal stability z-score (lipoamide; arsenate co-treatment: none): 0.0459 | thermal stability z-score (potassium arsenate): -0.293

SLC25A36 (UniProt Q96CQ1)
thermal stability z-score (lipoamide; [1]): 0.659 | thermal stability z-score (lipoamide; arsenate co-treatment: none): 0.329 | thermal stability z-score (potassium arsenate): -0.241

MED15 (UniProt Q96RN5)
Sequence of UniProt Q96RN5 (Q96RN5 whole entry): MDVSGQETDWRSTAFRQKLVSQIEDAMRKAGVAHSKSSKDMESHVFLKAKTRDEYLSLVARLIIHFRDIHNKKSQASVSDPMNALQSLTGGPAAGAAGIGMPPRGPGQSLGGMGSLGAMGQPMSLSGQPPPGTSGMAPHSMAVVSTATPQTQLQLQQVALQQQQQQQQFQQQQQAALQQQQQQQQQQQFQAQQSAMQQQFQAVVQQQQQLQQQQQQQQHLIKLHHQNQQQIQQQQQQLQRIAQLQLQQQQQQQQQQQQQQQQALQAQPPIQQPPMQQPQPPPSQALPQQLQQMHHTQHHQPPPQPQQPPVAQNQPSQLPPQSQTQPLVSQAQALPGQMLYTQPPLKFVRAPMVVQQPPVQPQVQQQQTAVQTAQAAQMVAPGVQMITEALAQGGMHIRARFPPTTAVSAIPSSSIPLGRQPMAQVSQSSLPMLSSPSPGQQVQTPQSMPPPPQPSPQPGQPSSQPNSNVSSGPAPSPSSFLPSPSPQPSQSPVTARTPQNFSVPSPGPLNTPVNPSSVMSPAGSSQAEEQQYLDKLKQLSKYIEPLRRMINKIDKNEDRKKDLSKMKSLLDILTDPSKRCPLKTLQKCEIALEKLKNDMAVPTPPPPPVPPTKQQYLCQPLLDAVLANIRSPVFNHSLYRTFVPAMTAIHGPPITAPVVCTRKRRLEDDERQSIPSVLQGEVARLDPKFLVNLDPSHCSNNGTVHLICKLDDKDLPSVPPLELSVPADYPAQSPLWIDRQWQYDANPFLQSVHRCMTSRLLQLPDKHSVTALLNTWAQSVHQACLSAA
thermal stability z-score (lipoamide; [1]): -0.382 | thermal stability z-score (lipoamide; arsenate co-treatment: none): -0.574 | thermal stability z-score (potassium arsenate): -2.01

CCS (UniProt O14618)
thermal stability z-score (lipoamide; [1]): 1.32 | thermal stability z-score (lipoamide; arsenate co-treatment: none): 0.653 | thermal stability z-score (potassium arsenate): 3.23

SNX5 (UniProt Q9Y5X3)
thermal stability z-score (lipoamide; [1]): -0.497 | thermal stability z-score (lipoamide; arsenate co-treatment: none): -0.998 | thermal stability z-score (potassium arsenate): -0.458

SOS1 (UniProt Q07889)
thermal stability z-score (lipoamide; [1]): 0.324 | thermal stability z-score (lipoamide; arsenate co-treatment: none): 0.304 | thermal stability z-score (potassium arsenate): 0.167

MRPS28 (UniProt Q9Y2Q9)
thermal stability z-score (lipoamide; [1]): 0.366 | thermal stability z-score (lipoamide; arsenate co-treatment: none): 0.352 | thermal stability z-score (potassium arsenate): -0.842
